Assay results reported in patent publication US7601336B2, “Pharmaceutical aerosol composition” (Chiesi Farmaceutici S.p.A., priority 1997, dated 2009).

Experiment: Aerodynamic particle size distribution by Andersen Cascade Impactor (ACI), ten cumulative actuations, drug on plates by HPLC
Assay type: physicochemical
Settings: HFA 134a
Experimental: The aerosol compositions of the invention described below were prepared by the following method. The required components of a composition were added into a can in the following order: drug, non-volatile additive, absolute ethanol. After crimping of the valve on to the can, the propellant was added through the valve. The weight gain of the can after each component was added was recorded to allow the percentage, by weight, of each component in the formulation to be calculated. The aerodynamic particle size distribution of each formulation was characterized using a Multistage Cascade Impactor according to the procedure described in the European Pharmacopoeia 2nd edition, 1995, part V.5.9.1. pages 15-17. In this specific case an Andersen Cascade Impactor (ACI) was used. Results represented were obtained from ten cumulative actuations or a formulation. Deposition of the drug on each ACI plate was determined by high pressure liquid chromatography. The mass median aerodynamic diameter (MMAD) and geometric standard deviation (GSD) were calculated from plots of the cumulative percentage undersize of drug collected on each ACI plate (probit scale), against the upper cut off diameter for each respective ACI plate (log10 scale). The fine particle dose of each formulation was determined from the mass of drug collected on Stages 2 through to Filter (<5.8 μm) divided by the number of actuations per experiment.

[1] = BDP 10 mg/10 ml, ethanol 7.9%, actuator orifice 0.25 mm
[2] = BDP 10 mg/10 ml, ethanol 12.9-13.0%, actuator orifice 0.25 mm
[3] = BDP 10 mg/10 ml, ethanol 12.9 ± 0.1% (w/w), propylene glycol 0.0% (w/w), actuator orifice 0.42 mm
[4] = BDP 10 mg/10 ml, ethanol 12.9 ± 0.1% (w/w), propylene glycol 1.1% (w/w), actuator orifice 0.42 mm
[5] = BDP 10 mg/10 ml, ethanol 12.9 ± 0.1% (w/w), propylene glycol 3.2% (w/w), actuator orifice 0.42 mm
[6] = BDP 10 mg/10 ml, ethanol 12.9 ± 0.1% (w/w), propylene glycol 6.8% (w/w), actuator orifice 0.42 mm
[7] = BDP 10 mg/10 ml, ethanol 13.6%, H2O 0.5%, actuator orifice 0.33 mm
[8] = BDP 10 mg/10 ml, ethanol 13.7%, H2O 0.1%, actuator orifice 0.33 mm
[9] = BDP 20 mg/10 ml, ethanol 7.9%, actuator orifice 0.25 mm
[10] = BDP 20 mg/10 ml, ethanol 13.0%, actuator orifice 0.25 mm
[11] = BDP 50 mg/10 ml, ethanol 14.9%, H2O 0.1%, actuator orifice 0.33 mm
[12] = BDP 50 mg/10 ml, ethanol 14.9%, H2O 0.5%, actuator orifice 0.33 mm
[13] = BDP 50 mg/10 ml, ethanol 14.9 ± 0.1% (w/w), PEG 0.0% (w/w), actuator orifice 0.33 mm
[14] = BDP 50 mg/10 ml, ethanol 14.9 ± 0.1% (w/w), PEG 400 1.1% (w/w), actuator orifice 0.33 mm
[15] = BDP 50 mg/10 ml, ethanol 14.9 ± 0.1% (w/w), PEG 8000 1.0% (w/w), actuator orifice 0.33 mm
[16] = BDP 50 mg/10 ml, ethanol 15.0 ± 0.2% (w/w), glycerol 0.0% (w/w), actuator orifice 0.25 mm
[17] = BDP 50 mg/10 ml, ethanol 15.0 ± 0.2% (w/w), glycerol 0.0% (w/w), actuator orifice 0.33 mm
[18] = BDP 50 mg/10 ml, ethanol 15.0 ± 0.2% (w/w), glycerol 1.0% (w/w), actuator orifice 0.25 mm

CCC(=O)OCC(=O)[C@@]1(OC(=O)CC)[C@@H](C)C[C@H]2[C@@H]3CCC4=CC(=O)C=C[C@]4(C)[C@@]3(Cl)[C@@H](O)C[C@@]21C [BDP, beclomethasone dipropionate]
Fine particle dose [1]: 31.1 µg
MMAD ± GSD [1]: 0.8 ± 1.8
Mean emitted dose [1]: 44.7 µg
Fine particle dose [2]: 24.5 µg
MMAD ± GSD [2]: 0.9 ± 2.0
Mean emitted dose [2]: 45.1 µg
Fine particle dose [3]: 10.3 µg
MMAD ± GSD [3]: 1.1 ± 2.3 μm
Mean emitted dose [3]: 41.8 µg
Fine particle dose [4]: 9.3 µg
MMAD ± GSD [4]: 1.6 ± 3.4 μm
Mean emitted dose [4]: 44.0 µg
Fine particle dose [5]: 7.3 µg
MMAD ± GSD [5]: 2.9 ± 4.1 μm
Mean emitted dose [5]: 43.6 µg
Fine particle dose [6]: 4.9 µg
MMAD ± GSD [6]: 4.6 ± 3.9 μm
Mean emitted dose [6]: 44.9 µg
Fine particle dose [7]: 12.7 µg
MMAD ± GSD [7]: 1.0 ± 2.1 μm
Mean emitted dose [7]: 42.9 µg
Fine particle dose [8]: 14.9 µg
MMAD ± GSD [8]: 1.0 ± 2.2 μm
Mean emitted dose [8]: 43.2 µg
Fine particle dose [9]: 63.1 µg
MMAD ± GSD [9]: 1.0 ± 1.8
Mean emitted dose [9]: 84.8 µg
Fine particle dose [10]: 46.2 µg
MMAD ± GSD [10]: 1.0 ± 1.9
Mean emitted dose [10]: 87.6 µg
Fine particle dose [11]: 67.4 µg
MMAD ± GSD [11]: 1.8 ± 2.2 μm
Mean emitted dose [11]: 222.1 µg
Fine particle dose [12]: 60.2 µg
MMAD ± GSD [12]: 1.7 ± 2.2 μm
Mean emitted dose [12]: 215.1 µg
Fine particle dose [13]: 67.4 µg
MMAD ± GSD [13]: 1.8 ± 2.2 μm
Mean emitted dose [13]: 222.1 µg
Fine particle dose [14]: 55.6 µg
MMAD ± GSD [14]: 2.5 ± 2.2 μm
Mean emitted dose [14]: 218.9 µg
Fine particle dose [15]: 55.6 µg
MMAD ± GSD [15]: 2.5 ± 2.2 μm
Mean emitted dose [15]: 215.0 µg
Fine particle dose [16]: 105.9 µg
MMAD ± GSD [16]: 1.4 ± 1.9 μm
Mean emitted dose [16]: 205.8 µg
Fine particle dose [17]: 67.4 µg
MMAD ± GSD [17]: 1.8 ± 2.2 μm
Mean emitted dose [17]: 222.1 µg
Fine particle dose [18]: 94.4 µg
MMAD ± GSD [18]: 2.4 ± 2.0 μm
